Assay results taken from ChEMBL document CHEMBL1137885, “P4 and P1' optimization of bicycloproline P2 bearing tetrapeptidyl alpha-ketoamides as HCV protease inhibitors” (Bioorg Med Chem Lett, 2004).
pIC50, pKi: −log10 of the molar value.

Experiments:
Huh-7 [1] = assay: Cytotoxic concentration against Huh-7 liver cells in XTT cytotoxicity assay; assay type: functional; conditions: Homo sapiens
Plasminogen = Plasminogen (Homo sapiens, UniProt P00747); assay: Binding affinity towards human plasmin
Trypsin = Trypsin (Homo sapiens, UniProt P07477+P07478+P35030); assay: Binding affinity towards human trypsin; assay type: protein assay
Huh-7 [2] = assay: Ratio of CC50 to that of IC50 value; assay type: functional, Homo sapiens
Prothrombin = Prothrombin (Homo sapiens, UniProt P00734); assay: Binding affinity towards human thrombin
Plasma kallikrein = Plasma kallikrein (Homo sapiens, UniProt P03952); assay: Binding affinity towards human kallikrein
Cathepsin B = Cathepsin B (Homo sapiens, UniProt P07858); assay: Binding affinity towards human cathepsin B
Chymotrypsinogen B = Chymotrypsinogen B (Homo sapiens, UniProt P17538); assay: Binding affinity towards human Chymotrypsinogen
NS3 = NS3 (Hepatitis C virus, UniProt A3EZJ3); assay: Inhibition of HCV NS3 protease in the pNA based inhibition assay; design: species or system Hepacivirus hominis
Hepatitis C virus = assay: Inhibitory concentration against hepatitis C virus in replicon assay; assay type: functional, organism-based, Hepacivirus hominis
[3] = Selectivity for HCV NS3 over human elastase
Procathepsin L = Procathepsin L (Homo sapiens, UniProt P07711); assay: Selectivity for HCV NS3 over human cathepsin L
Sequence of Procathepsin L (P07711 whole entry): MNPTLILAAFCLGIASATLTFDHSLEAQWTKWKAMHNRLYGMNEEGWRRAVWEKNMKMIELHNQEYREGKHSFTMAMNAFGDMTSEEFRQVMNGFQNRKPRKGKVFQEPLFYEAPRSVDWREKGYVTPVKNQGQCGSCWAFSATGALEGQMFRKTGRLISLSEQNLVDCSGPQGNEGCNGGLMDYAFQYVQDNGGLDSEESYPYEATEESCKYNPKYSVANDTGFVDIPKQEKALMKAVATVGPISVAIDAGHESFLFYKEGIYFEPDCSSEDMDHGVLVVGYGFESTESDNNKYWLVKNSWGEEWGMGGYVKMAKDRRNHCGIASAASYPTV

Sequence of Plasma kallikrein (P03952 20-390 limits assumed): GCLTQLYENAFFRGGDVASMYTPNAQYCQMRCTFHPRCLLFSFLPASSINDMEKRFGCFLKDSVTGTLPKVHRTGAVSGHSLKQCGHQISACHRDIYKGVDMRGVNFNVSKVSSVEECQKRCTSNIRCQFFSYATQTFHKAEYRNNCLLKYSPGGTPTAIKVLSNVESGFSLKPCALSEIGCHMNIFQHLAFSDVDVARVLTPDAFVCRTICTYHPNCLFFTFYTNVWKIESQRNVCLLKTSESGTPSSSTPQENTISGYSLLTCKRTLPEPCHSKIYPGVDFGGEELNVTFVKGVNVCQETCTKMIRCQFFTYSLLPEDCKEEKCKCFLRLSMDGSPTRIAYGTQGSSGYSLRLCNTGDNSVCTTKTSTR
Sequence of Plasma kallikrein (P03952 391-638 limits assumed): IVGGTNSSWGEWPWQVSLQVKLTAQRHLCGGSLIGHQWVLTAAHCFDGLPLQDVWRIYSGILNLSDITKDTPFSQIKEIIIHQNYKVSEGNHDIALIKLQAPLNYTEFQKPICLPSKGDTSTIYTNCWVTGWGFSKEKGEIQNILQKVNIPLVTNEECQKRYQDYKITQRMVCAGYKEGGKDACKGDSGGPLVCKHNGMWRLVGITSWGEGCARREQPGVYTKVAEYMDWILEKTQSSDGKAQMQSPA
Sequence of NS3 (A3EZJ3 whole entry): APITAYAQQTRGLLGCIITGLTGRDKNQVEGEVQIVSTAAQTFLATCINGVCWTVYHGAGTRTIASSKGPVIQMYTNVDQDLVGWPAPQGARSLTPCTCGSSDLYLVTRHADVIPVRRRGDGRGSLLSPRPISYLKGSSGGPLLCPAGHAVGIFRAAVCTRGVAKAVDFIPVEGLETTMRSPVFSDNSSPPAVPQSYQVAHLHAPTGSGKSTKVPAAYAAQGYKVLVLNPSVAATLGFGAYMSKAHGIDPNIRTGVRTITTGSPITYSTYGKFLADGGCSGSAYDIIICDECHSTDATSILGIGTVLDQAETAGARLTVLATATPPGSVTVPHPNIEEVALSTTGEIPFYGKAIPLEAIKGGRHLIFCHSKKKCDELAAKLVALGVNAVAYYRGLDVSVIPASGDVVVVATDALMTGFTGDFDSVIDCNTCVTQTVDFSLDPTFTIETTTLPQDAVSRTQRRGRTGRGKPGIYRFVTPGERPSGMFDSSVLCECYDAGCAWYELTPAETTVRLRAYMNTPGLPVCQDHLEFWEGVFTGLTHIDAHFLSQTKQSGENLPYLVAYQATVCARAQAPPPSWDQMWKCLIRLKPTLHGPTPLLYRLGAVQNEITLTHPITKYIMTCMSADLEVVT
Sequence of Chymotrypsinogen B (P17538 34-164 limits assumed, other chains not shown): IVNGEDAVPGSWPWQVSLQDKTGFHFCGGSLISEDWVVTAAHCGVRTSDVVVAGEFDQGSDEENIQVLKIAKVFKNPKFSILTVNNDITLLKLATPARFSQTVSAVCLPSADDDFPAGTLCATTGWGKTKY
Sequence of Chymotrypsinogen B (P17538 167-263 limits assumed, other chains not shown): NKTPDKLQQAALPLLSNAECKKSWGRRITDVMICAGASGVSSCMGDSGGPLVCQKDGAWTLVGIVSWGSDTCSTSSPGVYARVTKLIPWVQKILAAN
Sequence of Plasminogen (P00747 97-580 limits assumed): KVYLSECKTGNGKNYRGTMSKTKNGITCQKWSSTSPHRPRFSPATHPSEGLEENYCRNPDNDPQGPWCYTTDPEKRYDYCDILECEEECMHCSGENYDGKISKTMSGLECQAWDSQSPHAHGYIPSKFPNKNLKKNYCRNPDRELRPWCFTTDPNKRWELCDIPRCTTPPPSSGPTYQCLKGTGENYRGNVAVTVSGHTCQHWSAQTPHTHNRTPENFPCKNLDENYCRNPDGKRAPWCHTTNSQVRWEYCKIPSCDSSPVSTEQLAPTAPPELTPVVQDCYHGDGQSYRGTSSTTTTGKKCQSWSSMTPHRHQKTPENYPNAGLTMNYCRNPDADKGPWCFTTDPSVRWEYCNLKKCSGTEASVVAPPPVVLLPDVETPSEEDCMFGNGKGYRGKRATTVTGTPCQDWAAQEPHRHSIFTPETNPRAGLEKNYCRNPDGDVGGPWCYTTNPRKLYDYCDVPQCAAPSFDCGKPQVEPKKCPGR
Sequence of Plasminogen (P00747 581-810 limits assumed): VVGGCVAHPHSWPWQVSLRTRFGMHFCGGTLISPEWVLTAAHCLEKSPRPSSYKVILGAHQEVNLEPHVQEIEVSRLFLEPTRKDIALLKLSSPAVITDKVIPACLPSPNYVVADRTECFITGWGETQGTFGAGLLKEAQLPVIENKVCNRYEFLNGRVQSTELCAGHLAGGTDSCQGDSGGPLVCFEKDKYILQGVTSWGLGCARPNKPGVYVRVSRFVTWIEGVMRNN

SMILES | pKi (Plasminogen) | Ki (Trypsin) [µM] | pKi (Prothrombin) | pKi (Plasma kallikrein) | pKi (Cathepsin B) | pKi (Chymotrypsinogen B) | pKi (NS3) | pIC50 (Hepatitis C virus) | selectivity ratio [3] | selectivity ratio (Procathepsin L) | CC50 (Huh-7 [1]) [µM] | Ratio (Huh-7 [2])
CCCC(NC(=O)[C@@H]1C2CCCC2CN1C(=O)[C@@H](NC(=O)[C@@H](NC(=O)c1cnccn1)C1CCCCC1)C(C)(C)C)C(=O)C(=O)N[C@H](C)CC (stereo partly drawn) | < 4.30 | > 50 | < 4.30 | < 4.30 | 4.89 | < 4.30 | 7.10 | 5.97 | 81 | 107 | 69.2 | 65
CCC[C@H](NC(=O)[C@@H]1C2CCCC2CN1C(=O)[C@@H](NC(=O)[C@@H](NC(=O)c1cnccn1)[C@@H](C)CC)C(C)(C)C)C(=O)C(=O)NC1CC1 (stereo partly drawn) | < 4.30 | > 50 | < 4.30 | < 4.30 | 5.00 | < 4.30 | 7.10 | 5.84 | 36 | 15 | > 100 | >69
CCCC(NC(=O)[C@@H]1C2CCCC2CN1C(=O)[C@@H](NC(=O)[C@@H](NC(=O)c1cnccn1)C1CCCCC1)C(C)(C)C)C(=O)C(=O)NC[C@@H](C)CC (stereo partly drawn) |  |  |  |  |  |  | 6.60 | 6.00 |  |  | 31.7 | 32
CCC[C@H](NC(=O)[C@@H]1C2CCCC2CN1C(=O)[C@@H](NC(=O)[C@@H](NC(=O)c1cnccn1)C(C)(C)C)C(C)(C)C)C(=O)C(=O)NC1CC1 (stereo partly drawn) | < 4.30 | > 50 | < 4.30 | < 4.30 | 5.41 | < 4.30 | 6.80 | 5.89 | 102 | 123 | > 100 | >77
CCCC(NC(=O)[C@@H]1C2CCCC2CN1C(=O)[C@@H](NC(=O)[C@H](CC1CCCCC1)NC(=O)c1cnccn1)C(C)(C)C)C(=O)C(=O)NC1CC1 (stereo partly drawn) |  |  |  |  |  |  | 6.19 | 5.55 |  |  | 45.5 | 16
CCCC(NC(=O)[C@@H]1[C@H]2CCC[C@H]2CN1C(=O)[C@@H](NC(=O)[C@@H](NC(=O)c1cnccn1)C1CCCCC1)C(C)(C)C)C(=O)C(=O)NC1CC1 (stereo partly drawn) | < 4.30 | > 50 | < 4.30 | < 4.30 | 5.52 | < 4.30 | 7.15 | 6.26 | 62 | 134 | 86.5 | 157

More lines, main results first:

pKi (Plasminogen) | Ki (Trypsin) [µM] | pKi (Prothrombin) | pKi (Plasma kallikrein) | pKi (Cathepsin B) | pKi (Chymotrypsinogen B) | pKi (NS3) | pIC50 (Hepatitis C virus) | selectivity ratio [3] | selectivity ratio (Procathepsin L) | SMILES | CC50 (Huh-7 [1]) [µM] | Ratio (Huh-7 [2])
 |  |  |  |  |  | 6.19 | 5.55 |  |  | CCC[C@H](NC(=O)[C@@H]1C2CCCC2CN1C(=O)[C@@H](NC(=O)[C@@H](NC(=O)c1cnccn1)c1ccccc1)C(C)(C)C)C(=O)C(=O)NC1CC1 (stereo partly drawn) | 58.6 | 21
< 4.30 | > 50 | < 4.30 | < 4.30 | 3.55 | < 4.30 | 7.05 | 6.68 | 29 | 51 | CCCC(NC(=O)[C@@H]1C2CCCC2CN1C(=O)[C@@H](NC(=O)[C@@H](NC(=O)c1cnccn1)C1CCCCC1)C(C)(C)C)C(=O)C(=O)N[C@H](C)c1ccccc1 (stereo partly drawn) | 22 | 105
< 4.30 | > 50 | < 4.30 | < 4.30 | 5.14 | < 4.30 | 6.82 | 5.36 | 126 | 146 | CCC[C@H](NC(=O)[C@@H]1C2CCCC2CN1C(=O)[C@@H](NC(=O)[C@@H](NC(=O)c1cnccn1)[C@@H](C)OC)C(C)(C)C)C(=O)C(=O)NC1CC1 (stereo partly drawn) | > 100 | >22
< 4.30 | > 50 | < 4.30 | < 4.30 | 4.40 | < 4.30 | 7.70 | 6.40 | 392 | 760 | CC(C)(C)[C@H](NC(=O)[C@@H](NC(=O)c1cnccn1)C1CCCCC1)C(=O)N1CC2CCCC2[C@H]1C(=O)NC(CC(F)F)C(=O)C(=O)NC1CC1 (stereo partly drawn) | > 100 | 250
< 4.30 | > 50 | < 4.30 | < 4.30 | 5.80 | < 4.30 |  |  |  |  | CCCC(NC(=O)[C@@H]1[C@H]2CCC[C@H]2CN1C(=O)[C@@H](NC(=O)[C@@H](NC(=O)c1cnccn1)C(C)C)C(C)(C)C)C(=O)C(=O)NC1CC1 (stereo partly drawn) | > 100 | 
